The compounds below were run against Replicase polyprotein 1a (Severe acute respiratory syndrome-related coronavirus, UniProt P0C6U8) (assay: Inhibition of SARS coronavirus chymotrypsin-like protease by fluorescence plate reader).
In the case of `N#Cc1c(-c2cccc([N+](=O)[O-])c2)nc(SCCc2ccccc2)[nH]c1=O`, the IC50 is reported as over 50 µM. Work on `COc1ccc(-c2nc(SCCc3ccccc3)[nH]c(=O)c2C#N)cc1` yielded an IC50 of 20.3 µM. In the case of `COc1ccc(-c2nc(SCc3ccccc3)[nH]c(=O)c2C#N)cc1`, the IC50 is reported as over 50 µM. `N#Cc1c(-c2ccc(Cl)cc2)nc(SCc2ccc([N+](=O)[O-])cc2)[nH]c1=O` gave an IC50 of 6.1 µM. With `N#Cc1c(-c2cccc(Cl)c2)nc(SCc2ccccc2)[nH]c1=O` the IC50 was over 50 µM. `Cc1ccc(-c2nc(SCCc3ccccc3)[nH]c(=O)c2C#N)cc1` was tested, and the IC50 was over 50 µM. `Cc1ccc(-c2nc(SCc3ccccc3)[nH]c(=O)c2C#N)cc1` gave an IC50 of over 50 µM. `Cc1ccc(-c2nc(SCc3ccc([N+](=O)[O-])cc3)[nH]c(=O)c2C#N)cc1` was tested, and the IC50 was over 50 µM. `COc1ccc(-c2nc(SCc3ccc([N+](=O)[O-])cc3)[nH]c(=O)c2C#N)cc1` gave an IC50 of 26.3 µM. `N#Cc1c(-c2ccccc2)nc(SCc2ccc([N+](=O)[O-])cc2)[nH]c1=O` showed an IC50 of 35.2 µM. `N#Cc1c(-c2ccccc2)nc(SCc2ccccc2)[nH]c1=O` gave an IC50 of over 50 µM. In the case of `N#Cc1c(-c2ccccc2)nc(SCCc2ccccc2)[nH]c1=O`, the IC50 is reported as over 50 µM. `N#Cc1c(-c2cccc([N+](=O)[O-])c2)nc(SCc2ccc([N+](=O)[O-])cc2)[nH]c1=O` gave an IC50 of 10.6 µM. Work on `N#Cc1c(-c2ccc(Cl)cc2)nc(SCCc2ccccc2)[nH]c1=O` yielded an IC50 of 16.9 µM.
